For one test, the target named is T1, GST-tagged MDMX (Homo sapiens, UniProt O15151).
T1 sequence (O15151 1-490): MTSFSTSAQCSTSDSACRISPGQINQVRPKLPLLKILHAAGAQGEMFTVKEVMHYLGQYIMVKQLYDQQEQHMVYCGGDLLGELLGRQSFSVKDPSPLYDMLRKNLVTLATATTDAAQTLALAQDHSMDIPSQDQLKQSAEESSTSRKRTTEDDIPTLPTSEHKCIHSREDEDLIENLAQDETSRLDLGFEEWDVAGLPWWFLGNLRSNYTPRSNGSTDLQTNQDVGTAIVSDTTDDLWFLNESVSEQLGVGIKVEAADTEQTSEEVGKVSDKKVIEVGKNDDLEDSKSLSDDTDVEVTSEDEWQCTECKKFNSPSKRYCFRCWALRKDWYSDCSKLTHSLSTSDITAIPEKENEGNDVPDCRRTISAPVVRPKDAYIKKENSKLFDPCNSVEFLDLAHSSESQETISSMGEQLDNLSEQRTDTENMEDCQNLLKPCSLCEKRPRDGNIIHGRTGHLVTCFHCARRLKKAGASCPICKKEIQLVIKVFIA
As to the kind of experiment: HTRF binding assay of GST-tagged MDMX to p53 peptide. For orientation: TR-FRET usually uses a lanthanide donor and a delayed reading to cut background.

Test [1] concerns the target recombinant GST-tagged MDM2 (Homo sapiens, UniProt Q00987). As to the kind of experiment: HTRF assay of interaction between p53 peptide and GST-tagged MDM2. The note with it: inhibition of GST-MDM2 (160 ng/ml) binding to biotinylated p53-peptide. The method in brief: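 Compounds were preincubated with 160 ng/ml GST-MDM2 and 90 nM N-terminally biotinylated p53-like peptide (final) in 20 mM TBS, 0.02% BSA, 1 mM DTT for 1 h at 37 °C. Eu-anti-GST antibody and streptavidin-APC were added for 30 min at room temperature; binding read as TR-FRET at 665 and 615 nm.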

Among the data in US20140148443A1, “Novel Imidazolines as dual inhibitors of MDM2 and MDMX” (priority 2012, published 2014) are IC50 values, retold here.

Chain of recombinant GST-tagged MDM2 (Q00987 whole entry): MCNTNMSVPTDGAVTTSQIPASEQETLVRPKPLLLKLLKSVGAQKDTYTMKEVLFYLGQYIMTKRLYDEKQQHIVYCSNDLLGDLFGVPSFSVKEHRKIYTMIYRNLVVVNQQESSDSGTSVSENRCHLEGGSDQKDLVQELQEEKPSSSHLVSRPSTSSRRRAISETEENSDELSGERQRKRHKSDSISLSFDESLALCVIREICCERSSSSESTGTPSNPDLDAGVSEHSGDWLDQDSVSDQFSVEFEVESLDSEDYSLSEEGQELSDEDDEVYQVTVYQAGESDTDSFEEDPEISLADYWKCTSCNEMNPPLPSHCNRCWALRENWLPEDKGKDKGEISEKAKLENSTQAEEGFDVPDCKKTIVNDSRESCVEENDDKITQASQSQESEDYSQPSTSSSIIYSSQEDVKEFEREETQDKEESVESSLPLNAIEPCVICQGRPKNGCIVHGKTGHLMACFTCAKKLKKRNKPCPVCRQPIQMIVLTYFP

Take `C[C@@]1(c2ccc(Cl)cc2)N=C(c2cc(S(C)(=O)=O)c(Cl)cc2OCC2CC2)N(C(=O)N2CCN(CCCS(C)(=O)=O)CC2)[C@]1(C)c1ccc(Cl)cc1` [Example 42, [(4S,5R)-2-(4-Chloro-2-cyclopropylmethoxy-5-methanesulfonyl-phenyl)-4,5-bis-(4-chloro-phenyl)-4,5-dimethyl-4,5-dihydro-imidazol-1-yl]-[4-(3-methanesulfonyl-propyl)-piperazin-1-yl]-methanone]: the IC50 – broadly, the concentration that inhibits the measured activity by half – was 6630 nM at GST-tagged MDMX and 12.5 nM in test [1].

As for `CCOc1cc(Cl)c(S(C)(=O)=O)cc1C1=N[C@@](C)(c2ccc(Cl)cc2)[C@@](C)(c2ccc(Cl)cc2)N1C(=O)N1CCN(CCS(=O)(=O)CC)CC1` [Example 26, [(4S,5R)-2-(4-Chloro-2-ethoxy-5-methanesulfonyl-phenyl)-4,5-bis-(4-chloro-phenyl)-4,5-dimethyl-4,5-dihydro-imidazol-1-yl]-[4-(2-ethanesulfonyl-ethyl)-piperazin-1-yl]-methanone], the values for the IC50 (on GST-tagged MDMX; in test [1]) were 2010 nM and 5.2 nM, respectively.

In the case of `CCOc1cc(Cl)c(S(=O)(=O)NC(C)(C)C)cc1C1=N[C@@](C)(c2ccc(Cl)cc2)[C@@](C)(c2ccc(Cl)cc2)N1C(=O)N1CCN(CCOCCO)CC1` [Example 46, 5-((4S,5R)-4,5-Bis-(4-chloro-phenyl)-1-{4-[2-(2-hydroxy-ethoxy)-ethyl]-piperazine-1-carbonyl}-4,5-dimethyl-4,5-dihydro-1H-imidazol-2-yl)-N-tert-butyl-2-chloro-4-ethoxy-benzenesulfonamide], the IC50 was 1810 nM on GST-tagged MDMX and 12.2 nM in test [1].

For the molecule `CC(C)Oc1cc(Cl)c(S(N)(=O)=O)cc1C1=N[C@@](C)(c2ccc(Cl)cc2)[C@@](C)(c2ccc(Cl)cc2)N1C(=O)N1CCN(CCCS(C)(=O)=O)CC1` [Example 65, 5-{(4S,5R)-4,5-Bis-(4-chloro-phenyl)-1-[4-(3-methanesulfonyl-propyl)-piperazine-1-carbonyl]-4,5-dimethyl-4,5-dihydro-1H-imidazol-2-yl}-2-chloro-4-isopropoxy-benzenesulfonamide], the half-inhibitory concentration (IC50) worked out at 337 nM at GST-tagged MDMX and 7.7 nM in test [1].

As for `CCOc1cc(Cl)c(S(C)(=O)=O)cc1C1=N[C@@](C)(c2ccc(Cl)cc2)[C@@](C)(c2ccc(Cl)cc2)N1C(=O)N1CCC(O)CC1` [Example 38, [(4S,5R)-2-(4-Chloro-2-ethoxy-5-methanesulfonyl-phenyl)-4,5-bis-(4-chloro-phenyl)-4,5-dimethyl-4,5-dihydro-imidazol-1-yl]-(4-hydroxy-piperidin-1-yl)-methanone], the IC50 was 2890 nM on GST-tagged MDMX and 8.4 nM in test [1].

Consider `CCOc1cc(Cl)c(S(C)(=O)=O)cc1C1=N[C@@](C)(c2ccc(Cl)cc2)[C@@](C)(c2ccc(Cl)cc2)N1C(=O)N1CCC(NC(N)=O)CC1` [Example 32, {1-[(4S,5R)-2-(4-Chloro-2-ethoxy-5-methanesulfonyl-phenyl)-4,5-bis-(4-chloro-phenyl)-4,5-dimethyl-4,5-dihydro-imidazole-1-carbonyl]-piperidin-4-yl}-urea], for which the 50% inhibitory concentration (IC50) at GST-tagged MDMX turned out to be 1460 nM; in test [1], 5.2 nM.

As to `CCOc1cc(Cl)c(S(C)(=O)=O)cc1C1=N[C@@](C)(c2ccc(Cl)cc2)[C@@](C)(c2ccc(Cl)cc2)N1C(=O)N1CCN(CC(N)=O)CC1` [Example 6, 2-{4-[(4S,5R)-2-(4-Chloro-2-ethoxy-5-methanesulfonyl-phenyl)-4,5-bis-(4-chloro-phenyl)-4,5-dimethyl-4,5-dihydro-imidazole-1-carbonyl]-piperazin-1-yl}-acetamide], the results for the IC50 (on GST-tagged MDMX; in test [1]) were 1210 nM and 6.6 nM, respectively.

As for `CC(C)Oc1cc(Cl)c(S(=O)(=O)N2C[C@H]3CC[C@@H](C2)O3)cc1C1=N[C@@](C)(c2ccc(Cl)cc2)[C@@](C)(c2ccc(Cl)cc2)N1C(=O)N1CCC(CC(N)=O)CC1` [Example 61, 2-{1-[(4S,5R)-2-{4-Chloro-2-isopropoxy-5-[(1R,5S)-(8-oxa-3-aza-bicyclo[3.2.1]oct-3-yl)sulfonyl]-phenyl}-4,5-bis-(4-chloro-phenyl)-4,5-dimethyl-4,5-dihydro-imidazole-1-carbonyl]-piperidin-4-yl}-acetamide], the IC50 at GST-tagged MDMX is 267 nM; in test [1], 9.1 nM.

With `CCOc1cc(Cl)c(S(C)(=O)=O)cc1C1=N[C@@](C)(c2ccc(Cl)cc2)[C@@](C)(c2ccc(Cl)cc2)N1C(=O)N1CCN(CC[C@H](O)CO)C(=O)C1` [Example 4, 4-[(4S,5R)-2-(4-Chloro-2-ethoxy-5-methanesulfonyl-phenyl)-4,5-bis-(4-chloro-phenyl)-4,5-dimethyl-4,5-dihydro-imidazole-1-carbonyl]-1-((S)-3,4-dihydroxy-butyl)-piperazin-2-one], the IC50 is 1730 nM on GST-tagged MDMX and 5.4 nM in test [1].

With `CCOc1cc(Cl)c(S(=O)(=O)NC(C)(C)C)cc1C1=N[C@@](C)(c2ccc(Cl)cc2)[C@@](C)(c2ccc(Cl)cc2)N1C(=O)N1CCN(C(=O)Cn2cnnn2)CC1` [Example 52, 5-{(4S,5R)-4,5-Bis-(4-chloro-phenyl)-4,5-dimethyl-1-[4-(2-tetrazol-1-yl-acetyl)-piperazine-1-carbonyl]-4,5-dihydro-1H-imidazol-2-yl}-N-tert-butyl-2-chloro-4-ethoxy-benzene sulfonamide], the IC50 at GST-tagged MDMX was 3760 nM; in test [1], 17.3 nM.

For `CCNC(=O)NC1CCN(C(=O)N2C(c3cc(S(C)(=O)=O)c(Cl)cc3OCC)=N[C@@](C)(c3ccc(Cl)cc3)[C@@]2(C)c2ccc(Cl)cc2)CC1` [Example 10, 1-{1-[(4S,5R)-2-(4-Chloro-2-ethoxy-5-methanesulfonyl-phenyl)-4,5-bis-(4-chloro-phenyl)-4,5-dimethyl-4,5-dihydro-imidazole-1-carbonyl]-piperidin-4-yl}-3-ethyl-urea], the IC50 worked out at 974 nM on GST-tagged MDMX and 4.2 nM in test [1].

Turning to `CC(C)Oc1cc(Cl)c(S(=O)(=O)NC(C)(C)C)cc1C1=N[C@@](C)(c2ccc(Cl)cc2)[C@@](C)(c2ccc(Cl)cc2)N1C(=O)N1CCC(CC(N)=O)CC1` [Example 60, 2-{1-[(4S,5R)-2-(5-tert-Butylsulfamoyl-4-chloro-2-isopropoxy-phenyl)-4,5-bis-(4-chloro-phenyl)-4,5-dimethyl-4,5-dihydro-imidazole-1-carbonyl]-piperidin-4-yl}-acetamide], the IC50 came out at 570 nM on GST-tagged MDMX and 15 nM in test [1].
